In this assay the target is T1, Human PARP-1 enzyme (Homo sapiens, UniProt P09874).
T1 construct: purchased Trevigen
T1 sequence (P09874 whole entry): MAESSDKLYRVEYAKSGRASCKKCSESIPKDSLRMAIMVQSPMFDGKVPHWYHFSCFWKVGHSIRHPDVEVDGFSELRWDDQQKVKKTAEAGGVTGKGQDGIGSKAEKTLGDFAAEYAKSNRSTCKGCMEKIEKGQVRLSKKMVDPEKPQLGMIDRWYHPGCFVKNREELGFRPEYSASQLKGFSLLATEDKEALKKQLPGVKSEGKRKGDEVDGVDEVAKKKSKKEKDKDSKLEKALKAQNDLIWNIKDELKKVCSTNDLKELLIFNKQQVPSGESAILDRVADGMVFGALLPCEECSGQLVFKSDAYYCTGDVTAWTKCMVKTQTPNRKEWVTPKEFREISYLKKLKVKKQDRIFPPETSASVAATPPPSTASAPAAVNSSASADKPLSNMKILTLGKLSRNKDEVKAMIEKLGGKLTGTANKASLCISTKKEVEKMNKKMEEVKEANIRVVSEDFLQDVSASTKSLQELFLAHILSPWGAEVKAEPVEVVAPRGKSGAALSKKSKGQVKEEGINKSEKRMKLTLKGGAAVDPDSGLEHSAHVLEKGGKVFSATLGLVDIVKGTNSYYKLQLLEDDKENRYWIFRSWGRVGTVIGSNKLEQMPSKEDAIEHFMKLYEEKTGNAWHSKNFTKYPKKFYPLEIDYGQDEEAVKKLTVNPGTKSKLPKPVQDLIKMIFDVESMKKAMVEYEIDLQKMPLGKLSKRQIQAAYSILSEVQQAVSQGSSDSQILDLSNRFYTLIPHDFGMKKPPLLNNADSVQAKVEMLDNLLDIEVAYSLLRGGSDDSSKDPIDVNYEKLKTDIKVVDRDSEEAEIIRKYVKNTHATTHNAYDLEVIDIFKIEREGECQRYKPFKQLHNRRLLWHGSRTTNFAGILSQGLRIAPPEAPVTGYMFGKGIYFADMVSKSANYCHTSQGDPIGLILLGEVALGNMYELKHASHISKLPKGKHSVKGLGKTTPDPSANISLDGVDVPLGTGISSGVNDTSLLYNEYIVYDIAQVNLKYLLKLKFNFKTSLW
The assay can be described thus: In vitro Scintillation Proximity Assay (SPA) for PARP-1 inhibitory activity. In kind it is biochemical. The settings on record: read-out: in vitro SPA assay PARP-1 pIC50 (converted). In outline:
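SPA assay: nicked-DNA-activated PARP-1 (0.1–0.2 μg/ml) ADP-ribosylates biotinylated histones (2 μg/ml) using [3H]-NAD+, 20 min at RT in Tris pH 8/DTT/MgCl2, stopped with 2 mM NAD+. Blank-subtracted cpm expressed as % control; IC50 by linear interpolation, reported as pIC50 (10−5 to 3×10−9 M tested).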
A general note: In a scintillation proximity assay essentially only radioactivity close to the scintillant gives light.
In the case of `Cc1cc2ccc(C(C)(C#N)Cc3cccc(Oc4ccccn4)c3)cc2[nH]c1=O` (stereo not shown) [Compound 304], the IC50 was 100 nM.

`CCOc1cc(N(C)C)nc(CC(C)(C#N)c2ccc3cc(CC)c(=O)[nH]c3c2)n1` (stereo not shown) [Compound 312]: the IC50 was 39.8 nM.

`CCOc1cc(C#N)nc(CC(C)(C#N)c2ccc3cc(CC)c(=O)[nH]c3c2)n1` (stereo not shown) [Compound 315]: the IC50 was 63.1 nM.

For the compound `CCc1cc2ccc(C(C#N)(CC)Cc3nc(C#N)cc(OC)n3)cc2[nH]c1=O` (stereo not shown) [Compound 316], the IC50 was 39.8 nM.

Turning to `CCc1cc2ccc(C(C#N)(CC)Cc3nc(OC)cc(OC)n3)cc2[nH]c1=O` (stereo not shown) [Compound 321], the IC50 is 79.4 nM.

In the case of `CCc1cc2ccc(C(C)(C#N)Cc3ccnc(C#N)c3)cc2[nH]c1=O` (stereo not shown) [Compound 324], the IC50 was 39.8 nM.

For `CCc1cc2ccc(C(C)(C#N)Cc3cc(C)nc(Cl)c3)cc2[nH]c1=O` (stereo not shown) [Compound 326], the IC50 was 63.1 nM.

On to `CCc1cc2ccc(C(C)(C#N)Cc3cc(C)nc(C#N)c3)cc2[nH]c1=O` (stereo not shown) [Compound 328], for which the IC50 is 63.1 nM.

For `CCc1cc2ccc(C(C)(C#N)Cc3ccnc(F)c3)cc2[nH]c1=O` (stereo not shown) [Compound 330], the IC50 is 39.8 nM.

As for `CCc1cc2ccc(C(C)(C#N)Cc3cccc(F)n3)cc2[nH]c1=O` (stereo not shown) [Compound 331], the IC50 is 31.6 nM.

For `CCc1cc2ccc([C@](C)(C#N)Cc3cc(F)cc(F)c3)cc2[nH]c1=O` [Compound 333], the IC50 is 31.6 nM.

Turning to `CCc1cc2ccc(C(C)(C#N)Cc3ccc(C(F)(F)F)nc3C)cc2[nH]c1=O` (stereo not shown) [Compound 340], the IC50 is 100 nM.

As for `CCc1cc2ccc(C(C)(C#N)Cc3ccnc(Cl)c3)cc2[nH]c1=O` (stereo not shown) [Compound 341], the IC50 is 63.1 nM.

As to `CCc1cc2ccc(C(C#N)(CC)Cc3cccc(C#N)n3)cc2[nH]c1=O` (stereo not shown) [Compound 342], the IC50 was 79.4 nM.

With `CCc1cc2ccc(C(C)(C#N)CCOc3ccnc(SC)n3)cc2[nH]c1=O` (stereo not shown) [Compound 348], the IC50 is 79.4 nM.

In the case of `CCc1cc2ccc(C(C)(C#N)CCOc3ncc(Br)cn3)cc2[nH]c1=O` (stereo not shown) [Compound 349], the IC50 was 63.1 nM.

Regarding `CCc1cc2ccc(C(C)(C#N)Cc3nc(C)cc(OC)n3)cc2[nH]c1=O` (stereo not shown) [Compound 371], the IC50 was 100 nM.

`CCc1cc2ccc(C(C)(C#N)CN3CCN(c4ncc(Br)cn4)CC3)cc2[nH]c1=O` (stereo not shown) [Compound 374]: the IC50 is 100 nM.

Turning to `CCc1cc2ccc(C(C)(C#N)CN3CCc4ccccc4C3)cc2[nH]c1=O` (stereo not shown) [Compound 376], the IC50 was 158 nM.

For the compound `Cc1cc2ccc([C@@](C)(C#N)[C@@H]3CCCc4ccccc43)cc2[nH]c1=O` [Compound 382], the IC50 was 501 nM.

Consider `CCc1cc2ccc(C(C#N)(CC)Cc3cccc(CN)c3)cc2[nH]c1=O` (stereo not shown) [Compound 390], for which the IC50 was 63.1 nM.

Turning to `CCc1cc2ccc([C@](C)(C#N)C[C@H]3Cc4ccccc4O3)cc2[nH]c1=O` [Compound 397], the IC50 is 126 nM.

`CCc1cc2ccc(C(C)(C#N)CC3Oc4ccccc4O3)cc2[nH]c1=O` (stereo not shown) [Compound 398]: the IC50 was 100 nM.

In the case of `CCc1cc2ccc(C(C)(C#N)Cc3cc(F)cc(F)c3)cc2[nH]c1=O` (stereo not shown) [Compound 402], the IC50 was 50.1 nM.

Turning to `CCc1cc2ccc(C(C#N)(CC)C3CCc4ccc(OC)cc43)cc2[nH]c1=O` (stereo not shown) [Compound 403], the IC50 was 501 nM.

Regarding `Cc1cc2ccc([C@@](C)(C#N)[C@H]3CCc4ccc(Br)cc43)cc2[nH]c1=O` [Compound 405], the IC50 is 316 nM.

Take `Cc1cc2ccc([C@](C)(C#N)[C@@H]3CCc4ccc(Br)cc43)cc2[nH]c1=O` [Compound 406]: the IC50 was 158 nM.

Take `Cc1cc2ccc([C@](C)(C#N)[C@H]3CCc4ccc(Br)cc43)cc2[nH]c1=O` [Compound 407]: the IC50 is 631 nM.
